Test results published in paper PMC10507085, “Pharmacological inhibition of TBK1/IKKε blunts immunopathology in a murine model of SARS-CoV-2 infection” (Nature Communications, 2023).

Assays:
Test in all cases: biochemical
Design in all cases: KINOMEscan competition binding, DNA-tagged kinase against immobilised ligand, qPCR read-out
Conditions in all cases: read-out: Percent Control
CLK4 = CLK4 (Homo sapiens, UniProt Q9HAZ1)
MAPK8 = MAPK8 (Homo sapiens, UniProt P45983)
MAP2K1 = MAP2K1 (Homo sapiens, UniProt Q02750)
WNK2 = WNK2 (Homo sapiens, UniProt Q9Y3S1)
MAP4K4 = MAP4K4 (Homo sapiens, UniProt O95819)
PHKG2 = PHKG2 (Homo sapiens, UniProt P15735)
[1] = molecular target: T1, RPS6KA5(Kin.Dom.1-N-terminal) (Homo sapiens, UniProt O75582)
T1 construct: Kin.Dom.1 N-terminal
T1 sequence (O75582 whole entry): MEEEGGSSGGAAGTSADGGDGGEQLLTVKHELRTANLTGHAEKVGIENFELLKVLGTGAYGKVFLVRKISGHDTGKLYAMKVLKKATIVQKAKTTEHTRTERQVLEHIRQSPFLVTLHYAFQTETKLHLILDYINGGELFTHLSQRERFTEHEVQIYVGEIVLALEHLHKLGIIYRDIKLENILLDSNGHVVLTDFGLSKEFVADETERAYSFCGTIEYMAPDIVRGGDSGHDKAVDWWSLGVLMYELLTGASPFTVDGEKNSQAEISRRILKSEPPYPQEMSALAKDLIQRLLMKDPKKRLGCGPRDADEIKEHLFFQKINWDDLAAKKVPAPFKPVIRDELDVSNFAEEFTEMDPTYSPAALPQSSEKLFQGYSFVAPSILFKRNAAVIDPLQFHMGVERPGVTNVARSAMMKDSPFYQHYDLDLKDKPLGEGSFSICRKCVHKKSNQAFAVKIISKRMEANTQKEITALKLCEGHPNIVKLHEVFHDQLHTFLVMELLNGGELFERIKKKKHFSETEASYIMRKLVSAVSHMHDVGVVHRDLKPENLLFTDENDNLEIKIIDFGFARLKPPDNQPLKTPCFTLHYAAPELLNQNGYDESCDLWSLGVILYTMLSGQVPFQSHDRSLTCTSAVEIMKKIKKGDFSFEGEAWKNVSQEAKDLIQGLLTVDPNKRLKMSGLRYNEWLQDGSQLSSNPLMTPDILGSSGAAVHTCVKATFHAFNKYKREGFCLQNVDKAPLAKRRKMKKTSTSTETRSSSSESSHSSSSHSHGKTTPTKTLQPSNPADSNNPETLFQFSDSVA

[2] = molecular target: T2, JAK2(JH1domain-catalytic) (Homo sapiens, UniProt O60674)
T2 construct: JH1 domain catalytic
T2 sequence (O60674 whole entry, the tested form may be a part): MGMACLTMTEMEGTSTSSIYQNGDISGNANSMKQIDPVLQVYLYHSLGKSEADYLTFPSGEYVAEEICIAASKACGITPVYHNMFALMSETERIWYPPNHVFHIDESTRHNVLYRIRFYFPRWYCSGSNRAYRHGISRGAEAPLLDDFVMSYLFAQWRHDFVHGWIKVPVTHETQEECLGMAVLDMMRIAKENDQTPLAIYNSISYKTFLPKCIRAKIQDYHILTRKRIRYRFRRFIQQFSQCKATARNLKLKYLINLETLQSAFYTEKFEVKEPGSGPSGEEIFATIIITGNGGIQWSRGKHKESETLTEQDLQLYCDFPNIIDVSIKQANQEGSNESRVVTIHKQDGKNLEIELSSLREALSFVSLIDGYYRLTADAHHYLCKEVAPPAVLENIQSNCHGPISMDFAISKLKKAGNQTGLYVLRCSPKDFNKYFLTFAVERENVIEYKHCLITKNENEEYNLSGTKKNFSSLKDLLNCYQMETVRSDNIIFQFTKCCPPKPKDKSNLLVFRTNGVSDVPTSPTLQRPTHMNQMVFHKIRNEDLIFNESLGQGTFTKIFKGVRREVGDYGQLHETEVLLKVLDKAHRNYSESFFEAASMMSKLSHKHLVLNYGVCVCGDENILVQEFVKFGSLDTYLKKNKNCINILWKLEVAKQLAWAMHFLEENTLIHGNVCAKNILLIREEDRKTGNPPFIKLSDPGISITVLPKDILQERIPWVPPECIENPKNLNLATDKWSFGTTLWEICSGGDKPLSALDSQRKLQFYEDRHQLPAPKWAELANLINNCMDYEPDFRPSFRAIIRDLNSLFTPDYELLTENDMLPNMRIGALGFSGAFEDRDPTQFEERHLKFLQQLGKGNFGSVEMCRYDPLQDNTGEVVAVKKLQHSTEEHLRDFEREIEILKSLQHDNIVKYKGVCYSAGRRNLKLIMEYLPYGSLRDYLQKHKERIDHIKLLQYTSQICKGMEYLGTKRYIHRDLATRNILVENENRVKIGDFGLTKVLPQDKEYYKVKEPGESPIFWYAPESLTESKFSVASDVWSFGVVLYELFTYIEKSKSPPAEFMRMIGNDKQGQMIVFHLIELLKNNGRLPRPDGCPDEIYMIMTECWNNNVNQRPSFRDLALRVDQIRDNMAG

BMP2K = BMP2K (Homo sapiens, UniProt Q9NSY1)
TGFBR2 = TGFBR2 (Homo sapiens, UniProt P37173)
FER = FER (Homo sapiens, UniProt P16591)
CIT = CIT (Homo sapiens, UniProt O14578)
MAP3K3 = MAP3K3 (Homo sapiens, UniProt Q99759)
Chain of MAP3K3 (Q99759 whole entry): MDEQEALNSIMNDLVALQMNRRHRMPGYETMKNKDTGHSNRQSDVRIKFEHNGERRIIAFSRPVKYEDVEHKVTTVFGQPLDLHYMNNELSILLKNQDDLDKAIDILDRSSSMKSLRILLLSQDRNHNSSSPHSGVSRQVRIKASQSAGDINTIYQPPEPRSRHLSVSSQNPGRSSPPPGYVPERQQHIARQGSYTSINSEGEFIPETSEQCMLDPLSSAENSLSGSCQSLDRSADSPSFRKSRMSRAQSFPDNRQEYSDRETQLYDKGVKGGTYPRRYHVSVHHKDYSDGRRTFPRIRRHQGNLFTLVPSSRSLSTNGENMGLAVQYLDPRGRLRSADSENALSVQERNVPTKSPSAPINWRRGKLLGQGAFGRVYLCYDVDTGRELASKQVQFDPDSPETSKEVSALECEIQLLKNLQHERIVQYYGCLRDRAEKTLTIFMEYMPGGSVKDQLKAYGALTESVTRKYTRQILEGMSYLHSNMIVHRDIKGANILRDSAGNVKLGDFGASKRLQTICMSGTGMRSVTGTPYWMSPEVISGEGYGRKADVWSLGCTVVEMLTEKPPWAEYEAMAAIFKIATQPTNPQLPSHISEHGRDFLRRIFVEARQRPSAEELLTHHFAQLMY

ERBB2 = ERBB2 (Homo sapiens, UniProt P04626)
LATS2 = LATS2 (Homo sapiens, UniProt Q9NRM7)
Chain of LATS2 (Q9NRM7 whole entry): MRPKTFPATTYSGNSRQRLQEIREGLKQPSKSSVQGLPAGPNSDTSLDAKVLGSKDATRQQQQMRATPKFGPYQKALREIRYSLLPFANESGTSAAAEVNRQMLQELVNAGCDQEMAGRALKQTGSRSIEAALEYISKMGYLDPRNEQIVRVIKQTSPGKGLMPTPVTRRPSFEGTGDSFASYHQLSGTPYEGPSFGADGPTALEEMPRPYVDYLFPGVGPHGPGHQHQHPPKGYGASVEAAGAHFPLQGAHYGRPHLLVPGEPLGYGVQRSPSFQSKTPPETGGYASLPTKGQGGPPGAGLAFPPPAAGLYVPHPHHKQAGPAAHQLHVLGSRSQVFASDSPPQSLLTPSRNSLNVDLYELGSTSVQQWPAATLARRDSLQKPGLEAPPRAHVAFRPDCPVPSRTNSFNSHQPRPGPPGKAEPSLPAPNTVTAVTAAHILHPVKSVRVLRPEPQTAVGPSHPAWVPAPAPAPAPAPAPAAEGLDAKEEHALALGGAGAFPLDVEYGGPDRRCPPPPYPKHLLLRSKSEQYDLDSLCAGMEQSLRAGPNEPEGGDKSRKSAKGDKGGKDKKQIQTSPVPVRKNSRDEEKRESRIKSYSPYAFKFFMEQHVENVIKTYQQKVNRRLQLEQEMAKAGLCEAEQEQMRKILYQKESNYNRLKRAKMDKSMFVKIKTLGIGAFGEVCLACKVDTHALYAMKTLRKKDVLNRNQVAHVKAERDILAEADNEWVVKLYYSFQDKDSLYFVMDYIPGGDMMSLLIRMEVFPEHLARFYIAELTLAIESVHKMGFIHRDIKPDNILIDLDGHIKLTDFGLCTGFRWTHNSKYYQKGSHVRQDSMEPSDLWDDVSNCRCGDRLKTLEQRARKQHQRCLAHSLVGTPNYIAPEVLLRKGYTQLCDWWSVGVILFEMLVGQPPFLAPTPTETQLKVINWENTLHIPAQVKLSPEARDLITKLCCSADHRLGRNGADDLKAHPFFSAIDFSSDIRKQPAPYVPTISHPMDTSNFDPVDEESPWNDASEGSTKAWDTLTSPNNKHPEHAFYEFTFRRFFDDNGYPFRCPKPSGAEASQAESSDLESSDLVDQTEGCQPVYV

GSK3B = GSK3B (Homo sapiens, UniProt P49841)
CDK4-cyclinD1 = CDK4-cyclinD1 (Homo sapiens, UniProt P11802)
Chain of CDK4-cyclinD1 (P11802 whole entry): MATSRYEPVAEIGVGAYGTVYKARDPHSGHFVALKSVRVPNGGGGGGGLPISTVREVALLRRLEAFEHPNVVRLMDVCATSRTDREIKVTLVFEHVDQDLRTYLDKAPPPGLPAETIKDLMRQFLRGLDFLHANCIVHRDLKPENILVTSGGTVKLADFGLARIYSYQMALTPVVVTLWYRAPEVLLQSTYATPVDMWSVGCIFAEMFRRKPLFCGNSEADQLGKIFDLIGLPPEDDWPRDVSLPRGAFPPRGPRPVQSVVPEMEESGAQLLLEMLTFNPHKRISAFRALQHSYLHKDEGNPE
Chain of CDK4-cyclinD1 (P24385 whole entry partner): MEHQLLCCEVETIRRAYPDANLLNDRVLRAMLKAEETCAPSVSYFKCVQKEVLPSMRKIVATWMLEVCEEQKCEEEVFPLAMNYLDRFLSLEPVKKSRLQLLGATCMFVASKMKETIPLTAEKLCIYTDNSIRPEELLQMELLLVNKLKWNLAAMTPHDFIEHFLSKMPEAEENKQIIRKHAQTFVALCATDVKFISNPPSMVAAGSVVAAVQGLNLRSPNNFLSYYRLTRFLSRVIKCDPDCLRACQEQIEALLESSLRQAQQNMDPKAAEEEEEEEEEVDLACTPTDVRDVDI

MAPK13 = MAPK13 (Homo sapiens, UniProt O15264)
Chain of MAPK13 (O15264 whole entry): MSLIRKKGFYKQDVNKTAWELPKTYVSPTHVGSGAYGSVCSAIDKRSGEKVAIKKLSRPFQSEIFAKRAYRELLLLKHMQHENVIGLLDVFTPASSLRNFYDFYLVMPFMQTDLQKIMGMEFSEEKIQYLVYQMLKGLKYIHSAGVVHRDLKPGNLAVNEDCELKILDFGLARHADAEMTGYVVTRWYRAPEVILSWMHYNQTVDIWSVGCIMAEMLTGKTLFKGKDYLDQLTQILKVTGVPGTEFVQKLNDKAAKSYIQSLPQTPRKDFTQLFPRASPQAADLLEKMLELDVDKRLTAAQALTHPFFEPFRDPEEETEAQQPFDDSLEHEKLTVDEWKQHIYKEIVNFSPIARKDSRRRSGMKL

LATS1 = LATS1 (Homo sapiens, UniProt O95835)
ERN1 = ERN1 (Homo sapiens, UniProt O75460)

Chain of MAPK8 (P45983 whole entry): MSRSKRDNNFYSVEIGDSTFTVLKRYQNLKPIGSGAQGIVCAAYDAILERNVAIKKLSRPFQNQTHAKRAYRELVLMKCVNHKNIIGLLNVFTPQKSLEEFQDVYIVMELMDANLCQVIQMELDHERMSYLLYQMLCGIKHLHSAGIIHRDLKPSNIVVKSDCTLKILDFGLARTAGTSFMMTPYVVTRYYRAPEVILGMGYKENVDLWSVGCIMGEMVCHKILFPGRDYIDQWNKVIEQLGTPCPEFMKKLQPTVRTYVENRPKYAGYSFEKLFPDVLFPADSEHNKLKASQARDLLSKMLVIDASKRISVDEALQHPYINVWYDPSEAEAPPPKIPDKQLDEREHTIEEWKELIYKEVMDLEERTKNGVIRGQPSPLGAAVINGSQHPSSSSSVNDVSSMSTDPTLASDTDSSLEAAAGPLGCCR

`Oc1ccc(C2=Cc3ccc(O)cc3OC2)cc1` [compound 1, idronoxil] was tested, and the remaining binding at 10 µM (CLK4) was 36%, the remaining binding at 10 µM (MAPK8) was 68% and the remaining binding at 10 µM (MAP2K1) was 86%. The remaining binding at 10 µM (WNK2) was 51%, the remaining binding at 10 µM (MAP4K4) was 47% and the remaining binding at 10 µM (PHKG2) was 46%. It also gave a remaining binding at 10 µM [1] of 100%, a remaining binding at 10 µM [2] of 81% and a remaining binding at 10 µM (BMP2K) of 86%. For the same molecule, the remaining binding at 10 µM (TGFBR2) was 100%, the remaining binding at 10 µM (FER) was 78% and the remaining binding at 10 µM (CIT) was 62%. It also gave a remaining binding at 10 µM (MAP3K3) of 81%, a remaining binding at 10 µM (ERBB2) of 88% and a remaining binding at 10 µM (LATS2) of 55%. It also gave a remaining binding at 10 µM (GSK3B) of 92%, a remaining binding at 10 µM (CDK4-cyclinD1) of 94% and a remaining binding at 10 µM (MAPK13) of 100%. It also gave a remaining binding at 10 µM (LATS1) of 100% and a remaining binding at 10 µM (ERN1) of 66%.
